Laboratory results published in PMC6439305 (iScience, 2019).

Biological target: MOR-Venus (mu opioid receptor fused to Venus-YFP) (Mus musculus, UniProt P42866)
Experiment: Galphai2/Ggamma2 BRET2 dissociation assay, HEK293
Format: cell-based
Conditions: agonist, 10 min stimulation

Sequence of MOR-Venus (mu opioid receptor fused to Venus-YFP) (P42866 whole entry, the tested form may be a part): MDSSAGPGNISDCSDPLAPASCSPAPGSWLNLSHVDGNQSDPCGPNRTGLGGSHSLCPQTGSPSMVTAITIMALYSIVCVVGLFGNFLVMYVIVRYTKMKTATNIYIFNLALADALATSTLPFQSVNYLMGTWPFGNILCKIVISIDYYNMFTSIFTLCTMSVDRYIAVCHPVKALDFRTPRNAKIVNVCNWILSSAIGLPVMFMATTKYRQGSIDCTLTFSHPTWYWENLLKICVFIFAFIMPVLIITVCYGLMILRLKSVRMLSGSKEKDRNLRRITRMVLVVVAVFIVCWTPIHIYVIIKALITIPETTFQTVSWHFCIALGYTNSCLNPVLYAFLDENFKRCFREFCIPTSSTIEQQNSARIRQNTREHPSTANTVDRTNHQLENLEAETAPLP

COc1ccc2c3c1O[C@H]1C(=O)CC[C@@]4(O)[C@@H](C2)N(C)CC[C@]314 [oxycodone]
EC50: except for oxycodone, which had a trend of lower potency
